Source: the NIST ThermoML archive (doi:10.1016/j.fluid.2015.07.032)
“And” between values parts separate entries of the source, which are not always exact repeats. Identical values can stand only once. Numbers after ± are expanded uncertainties.

Columns and labels:
[1] = for Normal melting temperature: Crystal, DTA; for mass density: 298.15 K, 101.33 kPa, Liquid, Vibrating tube method
[2] = Molar enthalpy of transition or fusion; settings: Crystal; DSC

| Normal melting temperature [1] [°C] | Molar enthalpy of transition or fusion [2] | mass density [1] [kg/m3] | Structure (SMILES) |
| --- | --- | --- | --- |
| 141.00 ± 0.7 | 8.48 ± 0.184 kcal/mol |  | N=C(N)N [guanidine] |
|  |  | 821.6 ± 0.11 | CCCCCCCCO [octan-1-ol] |
| 169.20 ± 0.7 | 6.57 ± 0.146 kcal/mol |  | CC(=O)Nc1ccc(O)cc1 [N-acetyl-p-aminophenol] |
|  |  | 780.8 ± 0.13 | CC(C)O [propan-2-ol] |
|  |  | 786.59 ± 0.12 | CO [methanol] |
|  |  | 785.02 ± 0.12 | CCO [ethanol] |
|  | 11.5 kcal/mol and 12 kcal/mol |  | NC(N)=Nc1nc(CSCC/C(N)=N/S(N)(=O)=O)cs1 [famotidine] |

| Structure (SMILES) | Normal melting temperature [1] [°C] | Molar enthalpy of transition or fusion [2] | mass density [1] [kg/m3] |
| --- | --- | --- | --- |
| CC(=O)Oc1ccccc1C(=O)O [2-acetoxybenzoic acid] | 135.50 ± 0.7 | 8.01 ± 0.174 kcal/mol |  |
